Assay results reported in patent US20060052357A1, “Organometallic anti-tumour agent” (priority 2001, published 2006).

Assays:
P388/vcr = assay: Drug-resistant leukemia P388/vcr (vincristine-resistant) survival; format: in vivo, mice; conditions: 5 mg/kg, days 1-7
Text: (§1) The therapeutic efficacy was investigated on the leukemia tumor strains L-1210, P-388, and P-388 strains specifically obtained for drug resistance. The lifespan of the animals was set at 60 days in this case. Drug-resistant tumor were obtained by successive transplantation of the leukemia P-388 with ascites cells taken from mice which had been treated with rubomycin (strain P388/ph), vincristine (P388/vcr) and zisplatin (P388/cPt).
(§2) Resistance to the products mentioned appear in the 8th, 6th and 4th generation.
(§3) The products were administered intraabdominally. Cu(acac)2M was dissolved in 10% Twin 80.

Toxicity investigations = format: in vivo, five laboratory species; conditions: 5 mg/kg of body weight
Description: The toxicity of the complex (C5H7O2)2—Cu—C13H18Cl2N2O2 of the invention was determined on five laboratory species in various tests. […] It was additionally possible to show in the investigations that (C5H7O2)2—Cu—C13H18Cl2N2O2 induces no resistance even on prolonged administration.

B-16 melanoma tumor = assay: B-16 melanoma in Black-line mice (Example 6); format: in vivo
Description: After transplantation of the B-16 melanoma tumor to Black-line mice. (cell suspension with 10×10^6 cells/ml), MOC.melphalan was administered intraabdominally in a dosage of 5 mg/kg in 0.3 ml of 10% DMSO solution on days 3, 5 and 9. The animals were sacrificed on day 21 of the investigation and underwent histological, morphological examination (see table 9).
After transplantation of the B-16 melanoma tumor into black-line mice (cell suspension with 10×10^6 cells/ml), the substance was administered intraabdominally in a dosage of 0.1 mg/animal in 0.3 ml of 10% DMSO solution on days 3, 5 and 9. The animals were sacrificed on day 16 of the investigation and underwent histological, morphological examination (see table 10, FIGS. 1, 2). The DNA concentration in the tumor cells was determined by spectrophotometry after electrophoresis. (Table 10, FIG. 3).

[1] = test system: tumor cell cultures (KML); assay: Protein synthesis: inclusion of 3H-amino acids in tumor cell cultures; format: cell-based, mice; conditions: 50 μg/ml, incubation 24 hours
Description: The effect of the substances on protein synthesis is determined with the aid of the suppression stage through the inclusion of radioactive precursors of amino acids (totaled mixture of ^3H-amino acids). 1 million cells in a “log phase” were selected for this. The complexes were introduced in a dosage of 50 μg/ml and, in parallel, the amino acids with an activity of 10 mCi/ml were introduced into 10 ml bottles. After incubation for 24 hours, the cells were washed out from the cultivation nutrient medium, and a lysis (disruption) was carried out. The radioactivity of the proteins was determined in a […] (table 25).

S-180 sarcoma tumor = assay: S-180 sarcoma in white crossbred mice (Example 7); format: in vivo; conditions: day 21
Description: After transplantation of the S-180 sarcoma tumor into white crossbred mice, the animals received the substance MOC.melphalan by intraabdominal administration in a dosage of 1 mg/kg in 0.3 ml of 10% DMSO solution on days 3, 5 and 9. The animals were sacrificed on day 21 of the investigation and underwent histological, morphological examination (table 11).
After transplantation of the S-180 sarcoma tumor into white crossbred mice, the animals received MOC.melphalan and melphalan by intraabdominal administration in a dosage of 5 mg/kg in 0.3 ml of 10% DMSO solution on days 3, 5, 7 and 9. The animals were sacrificed on day 21 of the investigation and underwent histological, morphological examination (table 12).
After transplantation of the S-180 sarcoma tumor into white crossbred mice, the animals received MOC.melphalan and melphalan by intraabdominal administration in a dosage of 5 mg/kg in 0.3 ml of 10% DMSO solution on days 2, 4, 6, 8 and 10. The animals were sacrificed on day 21 of the investigation and underwent histological, morphological examination (table 13).

leukemia P-388 = assay: Leukemia P-388 survival (original strain); format: in vivo, mice
Description: as §1
Inoculum: 10^6 cells in 0.2 ml of physiological saline solution. Mice: BDF1. Females 19-21 g
After transplantation of the tumor, the substance MOC.melphalan was administered intraabdominally to the animals in a dosage of 5 mg/kg in 0.3 ml of 10% Twin-80 solution on days 1 to 7. The effect of the substance was assessed on the basis of the lifespan and the weight change of the animals (table 7).
as §3

AKATON tumor = assay: AKATON small bowel adenocarcinoma, treatment with MOC.melphalan (Example 8); format: in vivo, mice; conditions: day 21
Description: After transplantation of the AKATON tumor into white crossbred mice, the animals received the substance MOC.melphalan by intraabdominal administration in a dosage of 5 mg/kg in 0.3 ml of physiological solution on days 3, 5, 7 and 9. The animals were sacrificed on day 21 of the investigation and underwent histological, morphological examination (table 14).
After transplantation of the AKATON tumor into white crossbred mice, the animals received the substance MOC.melphalan by intravenous administration in a dosage of 5 mg/kg in 0.3 ml of physiological solution on days 3, 5, 7 and 9. The animals were sacrificed on day 21 of the investigation and underwent histological, morphological examination (table 15).

P388/cPt = assay: Drug-resistant leukemia P388/cPt (cisplatin-resistant) survival; format: in vivo, mice; conditions: 5 mg/kg, days 1-7
Text: as §1, §2, §3

adenocarcinoma = assay: Adenocarcinoma in Balb mice, intraabdominal administration; format: in vivo
Description: 1) 10 mice of the Balb line, each of which contained an adenocarcinoma, received intraabdominal administration of Cu(acac)2M in a dose of 5 mg/kg in 0.3 ml of physiological saline solution. As control, 10 further mice of the same type with the same tumor were determined without treatment. An average tumor weight of 3.60 g was found in the control mice, while the average tumor weight in the treated mice was 0.3 g. The results for the mice treated according to the invention are indicated, with weight and size of the tumor, in table 1 below.
The average weight of the tumor was 3.60 g.

[2] = 5 mg/kg intraabdominal days 3, 5, 7, 9
[3] = 5 mg/kg intraabdominal days 1-7

With `CC(=O)C=C(C)[O-].CC(=O)C=C(C)[O-].NC(Cc1ccc(N(CCCl)CCCl)cc1)C(=O)O.[Cu+2]` (centres unmarked) [MOC.melphalan, (C5H7O2)2—Cu—C13H18Cl2N2O2] the ILS % (P388/vcr) was 516%, the “Number of surviving animals/number of animals in group” value (P388/vcr) was 5/6 and the “changes in organs and tissues” value (Toxicity investigations) was “no specific changes”. For the same compound, the “changes in the peripheral blood count” value (Toxicity investigations) was “no serious changes”, the “effects on renal and hepatic function” value (Toxicity investigations) was “no pathological effects” and the Percentage inhibition (B-16 melanoma tumor; 0.1 mg/animal intraabdominal days 3, 5, 9, day 16) was 78%. The Average tumor mass (B-16 melanoma tumor; 0.1 mg/animal intraabdominal days 3, 5, 9, day 16, control 3.22) was 0.83 g, the mitosis index (B-16 melanoma tumor; 0.1 mg/animal, day 16, control 4.2) was 0.6 and the Percentage inhibition (B-16 melanoma tumor; 5 mg/kg intraabdominal days 3, 5, 9, day 21) was 100%. The Tumor weight (B-16 melanoma tumor; FIG. 1, single black-line mouse after treatment, control mouse 3.15 g) was 0.3 g, the DNA (B-16 melanoma tumor; tumor cells, 0.1 mg/animal, day 16, control 4.3) was 0.8 mg/g and the “Suppression of amino acid inclusion” value [1] was 59%. For the same compound, the Percentage inhibition (S-180 sarcoma tumor; 1 mg/kg intraabdominal days 3, 5, 9) was 100%, the Percentage inhibition (S-180 sarcoma tumor; 5 mg/kg intraabdominal days 2, 4, 6, 8, 10) was 49% and the Average tumor mass (S-180 sarcoma tumor; 5 mg/kg intraabdominal days 2, 4, 6, 8, 10, control 3.9 ± 0.5) was 2.0 ± 0.7 g. For the same compound, the Percentage inhibition (S-180 sarcoma tumor; [2]) was 100%, the Change in weight (leukemia P-388; [3]) was -2.5 g and the “Increase in average lifespan” value (leukemia P-388; [3]) was 56.0%. The “Number of animals which survived to day 60” value (leukemia P-388; 5 mg/kg intraabdominal days 1-7, 6 animals) was 0, the Average lifespan (leukemia P-388; 5 mg/kg intraabdominal days 1-7, control 10.8) was 16.8 days and the ILS % (leukemia P-388; 5 mg/kg, days 1-7) was 56%. For the same compound, the Percentage inhibition (AKATON tumor; [2]) was 92%, the Average tumor mass (AKATON tumor; 5 mg/kg intraabdominal days 3, 5, 7, 9, control 3.6) was 0.3 and the Percentage inhibition (AKATON tumor; 5 mg/kg intravenous days 3, 5, 7, 9) was 80%. The Average tumor mass (AKATON tumor; 5 mg/kg intravenous days 3, 5, 7, 9, control 4.4) was 0.9 g, the ILS % (P388/cPt) was 193% and the “inhibition of the tumor” value (adenocarcinoma; Balb mice, 5 mg/kg intraabdominal, compared with control series) was 91.9%. The average tumor weight (adenocarcinoma; Balb mice, 5 mg/kg intraabdominal, control 3.60 g) was 0.3 g and the “Size of the tumor” value (adenocarcinoma; individual treated mice 1-10, 5 mg/kg intraabdominal, listed as Cu(acac)2M) was 0 cm.
